This note sets out measurements from patent publication US12150940B2, “WASp-protecting small molecules, compositions, methods and uses thereof in the treatment of innate and acquired immune-related disorders or conditions” (BAR ILAN UNIVERSITY, priority 2016, dated 2024).

Peptide text beside a SMILES is read from it. * marks the point of attachment. Cbz = O=C(OCc1ccccc1)*

In experiment [1] the test system is WASp. Nature of the experiment: WASp expression in Meg-01 megakaryocyte cell line (western blot). The experiment is classed as cell-based, human. The settings on record: Meg-01 cells, treated vs untreated. As to the method: Freshly-isolated platelets were stimulated with 10 μM of TRAP-6 for the indicated time points, followed by lysis. WIP (FIG. 7A) or WASp (FIG. 7B) were immunoprecipitated from the lysates and analyzed by western blot for co-immunoprecipitation, using anti-WASp, anti-WIP or anti-PKCθ antibodies. WASp immunoprecipitates were immunoblotted for WASp ubiquitylation using anti-ubiquitin (Ub) antibody (FIG. 7C). Ubiquitylated WASp appears as a smear of bands above the MW of 65 kDa with a prominent band at ˜81 kDa. […] Blots are representative of three independent experiments. Meg-01 megakaryocyte cell line was activated in the presence (+) or absence (−) of MG132, followed by lysis (FIG. 7E). WASp ubiquitylation was determined by co-immunoprecipitation analysis as in FIG. 7C. FIG. 7F illustrates Meg-01 cells that were transfected with PKCθ-specific siRNA (+) or non-specific (NS) siRNA (−). 24 h later, the cells were stimulated and lysed. PKCθ and WASp protein expression levels were analyzed by western blot with anti-PKCθ and anti-WASp antibodies, and with anti-GAPDH as loading control. Relative protein expression was determined by densitometric analysis and is presented below the corresponding lanes. […] Blots are representative of three independent experiments.
Human primary PBMCs were isolated from whole blood of healthy donors, as previously described (Barda-Saad et al, 2005). […]

Experiment [2] deals with T1, WAVE2 (Homo sapiens, UniProt Q9Y6W5).
T1 construct: expressed in transfected cells; host or cells: HEK 293T, transient transfection; unpurified cell lysate
Nature of the experiment: MST binding, YFP-WAVE2 in HEK 293T cell lysate. As to the method:
Diluted cell lysates of YFP-WASp/N-WASp/WAVE2-expressing HEK 293T cells were incubated with serially-diluted (100 μM-3 nM) SMCs. The mixed lysates and SMCs were then loaded into standard-treated Monolith™ capillaries and the fluorescence of the samples was measured by the Monolith NT.115 instrument at 60% MST power. Binding curves of WASp with SMC #6 (FIG. 3A), SMC #30 (FIG. 3B), SMC #33 (FIG. 3C), SMC #34 (FIG. 3D) and Y-27632 (FIG. 3E) or of N-WASp (FIG. 3F) or WAVE2 (FIG. 3G) with SMC #34 were generated by the NanoTemper Analysis 2.231 software. Normalized fluorescence (hot fluorescence/initial fluorescence) is plotted as a function of SMC concentration. […]
YFP-tagged WASp was obtained from cell lysates of Human Embryonic Kidney (HEK) 293T, transiently transfected with YFP-WASp/WAVE2/N-WASp by DNA-calcium phosphate co-precipitation as previously described (Reicher et al, 2012). […] After loading into the instrument (Monolith NT.115, NanoTemper), the samples were measured by standard protocols at 60% MST power. […] KD values were determined using the NanoTemper analysis software (NT Analysis 1.5.37 or 2.2.31).
Following this in silico screening, the inventors identified eight SMCs (#6, #23, #24, #25, #30, #32, #33, #34, see Table 1). […] The SMCs that specifically bind the degradation pocket of WASp were further evaluated by the inventors.

T1 sequence (Q9Y6W5 whole entry, species assumed): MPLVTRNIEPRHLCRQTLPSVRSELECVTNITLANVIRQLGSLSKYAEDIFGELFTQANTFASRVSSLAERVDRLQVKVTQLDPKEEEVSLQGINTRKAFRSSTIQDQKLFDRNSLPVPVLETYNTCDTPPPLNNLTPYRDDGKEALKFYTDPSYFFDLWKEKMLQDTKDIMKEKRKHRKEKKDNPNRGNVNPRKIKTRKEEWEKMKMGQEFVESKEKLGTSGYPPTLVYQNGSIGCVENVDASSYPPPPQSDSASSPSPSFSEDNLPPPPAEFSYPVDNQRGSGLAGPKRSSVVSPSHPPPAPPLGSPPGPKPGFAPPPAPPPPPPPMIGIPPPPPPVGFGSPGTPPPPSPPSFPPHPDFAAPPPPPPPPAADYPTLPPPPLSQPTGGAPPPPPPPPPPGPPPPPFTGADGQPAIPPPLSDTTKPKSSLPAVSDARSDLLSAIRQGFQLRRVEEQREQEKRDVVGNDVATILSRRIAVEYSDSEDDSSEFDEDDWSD

As for `CC(C)C[C@@H](C=O)NC(=O)[C@H](CC(C)C)NC(=O)[C@H](CC(C)C)NC(=O)OCc1ccccc1` [MG132] (Cbz-Leu-Leu-Leu-aldehyde), in experiment [1], the “WASp in whole cell lysates (W.C.L)” value is “more WASp was detected”.

With `CC1CCCC(C)N1C(=O)CSc1nnc(COc2cccc3cccnc23)o1` (centres unmarked) [SMC #34, 1-(2,6-dimethylpiperidin-1-yl)-2-[[5-(quinolin-8-yloxymethyl)-1,3,4-oxadiazol-2-yl]sulfanyl]ethanone], in experiment [2], the “binding to WAVE2” value was “no binding”.
